Experimental data taken from PMC12040169 (PLOS Biology, 2025).

Experiments:
[1] = test system: T1, C. trachomatis L2/434/Bu expressing GFP (CTL2-GFP); experiment: microbe, parasite or virus in culture; design: C. trachomatis total inclusion area by high-content imaging, normalised to DMSO; conditions: Chlamydia trachomatis, HeLa, 28.5 h; total inclusion area; read-out: % of control remaining
T1 construct: L2/434/Bu GFP intracellular growth in HeLa cells
Outline: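 First, bulk GFP and resorufin signals were measured in compound-treated infected cultures. Cells were next fixed and stained with Hoechst. Finally, high-content imaging quantified chlamydial inclusions (area, number) and host nuclei, and MICs were calculated.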

[2] = test system: T2, CTL2-GFP (C. trachomatis L2/434/Bu, GFP-expressing); experiment: microbe, parasite or virus in culture; design: Intracellular C. trachomatis growth in HeLa cells, bulk GFP fluorescence relative to DMSO; conditions: Chlamydia trachomatis, HeLa, 28.5 h; bulk GFP, mean of 2; read-out: % of control remaining
T2 construct: L2/434/Bu, GFP-expressing
Method: MICs were calculated as described above.

in vitro [3] = experiment: in vitro; design: Viability of infected HeLa host cells, resazurin conversion, bulk resorufin fluorescence relative to DMSO; conditions: human, hela cells; bulk resorufin, mean of 2
in vitro [4] = conditions: human, hela cells, % viability

Structure (SMILES)	activity at 1 µM [1] [%]	activity at 5 µM [1] [%]	activity at 10 µM [1] [%]	activity at 1 µM [2] [%]	activity at 5 µM [2] [%]	activity at 10 µM [2] [%]	viability at 28.5 h, 1 µM (in vitro [3]) [%]	viability at 28.5 h, 5 µM (in vitro [3]) [%]	viability at 28.5 h, 10 µM (in vitro [3]) [%]	viability at 28.5 h, 10 µM (in vitro [4]) [%]
Cc1cc2nc(-c3ccccn3)[nH]c2cc1C [CBK000122]	97.4	31	9.06	129	36.8	14.3	94.7	90.3	89.1	119
NCc1ccc2cccc(O)c2n1 [CBK001376T]	66.3	31.4	6.97	80.5	19.7	1.06	109	112	110	85.6
Cc1ccc(C(=O)NC2CCCC2)cc1[N+](=O)[O-] [CBK001993]	116	89.8	50.4	123	123	110	112	110	104	102
CC(C)(CN)CN(Cc1ccc(-c2ccccc2)cc1)C(=O)Nc1ccccc1C(C)(C)C [CBK002476C]	114	50.1	2.01	98.7	75.3	16.4	118	114	63.6	94.2
Fc1cccc(F)c1OCCOc1nc(N2CCNCC2)ccc1C(F)(F)F [CBK003977A]	53.4	9.38	1.96	86.2	37.8	27.8	92.3	90.5	89.4	87
CCOc1ccc(OCC)c2c1n(C)c(SC)[n+]2C [CBK005720G]	97.5	27.2	3.38	139	64.8	9.96	90.5	86.2	83.6	92.1
Cc1nc(C(=N)N)nc2ccccc12 [CBK010368C]	60.8	35.9	41.3	94.1	66.1	65.1	98.3	94.3	88.2	86.3
O=C(Nc1cccc2c(NC(=O)N3CCCCC3)cccc12)N1CCCCC1 [CBK010775]	97.8	43.6	23.8	130	67.1	38.3	89.2	88.8	84.5	109
COc1cc(N)c2ncccc2c1 [CBK011972C]	85	10.9	1.09	90.6	23.4	7.94	101	81.1	80	77.7
CC(=O)c1cc(-c2cccnc2)cs1 [CBK017637]	86.9	83.4	98.2	140	120	123	113	110	110	82.4
CC(=O)NC[C@H]1CN(c2ccc(-c3nnc(CCC#N)s3)c(F)c2)C(=O)O1 [CBK017926]	15.4	0.206	0.193	19.4	2.09	3.05	93.8	92	95.7	87.1
CC(=O)NC[C@H]1CN(c2ccc(-c3nnc([C@@H](C)N)s3)c(F)c2)C(=O)O1 [CBK017966]	84.6	5.78	2.78	90.2	10	3.77	92.5	87.1	89.3	93.2
